The test system of this experiment is 422866-222-R5-J1-PDC spheroids with HUVEC/MSC, viability. Put plainly: Anticancer human tumor 422866-222-R5-J1-PDC patient-derived pancreatic adenocarcinoma cell line growth inhibition [GQUAD]. The note with it: for viability, T/C: stronger effect = lower value. The text has this:
DNA G-quadruplex Stabilizer Agents in Combinations in Complex Spheroids
A high-throughput screen of multi-cell type tumor spheroids was designed to identify active combinations of DNA G-quadruplex stabilizer agents and targeted small molecules. Complex spheroids include a stromal component modeled by human endothelial cells (HUVEC) and fibroblasts modeled by human mesenchymal stem cells (MSCs). The concentration ranges selected for each drug and investigational agent were based upon clinically achievable concentrations if the clinical Cmax of the agent was known.
Compounds. The drugs and investigational agents: pidnarulex (CX-5461; NSC782164), APTO-253 (NSC789042), BRACO-19 (NSC847499), peposertib (NSC802822), ceralasertib (NSC780249), elimusertib (NSC800525), camonsertib (NSC841442), AZD-1390 (NSC803789), olaparib (NSC753686), talazoparib (NSC767125), ART-558 (NSC835418), sotorasib (NSC818433), MRTX-1133 (NSC836407), SN-38 (NSC673596), topotecan (NSC609699), etoposide (NSC141540), doxorubicin (NSC123127), gemcitabine (NSC613327), 5-fluorouracil (NSC19893), paclitaxel (NSC125973), vemurafenib (NSC761431), panobinostat (NSC761190), R-306465 (JNJ-16241199; NSC773264), adavosertib (NSC754352), TP-3654 (NSC805149), carboplatin (NSC241240), KSQ-4279 (NSC840948), and staurosporine (NSC755774) were obtained from the National Cancer Institute (NCI) Developmental Therapeutics Program Chemical Repository (34). The FDA-approved anticancer drug set is available from the NCI Developmental Therapeutics Program. […] The stock solutions were prepared in dimethyl sulfoxide (DMSO, Sigma-Aldrich, St. Louis, MO, cat. D2650) at 800-fold the tested concentration and stored at -70 degrees C prior to their use. All drugs and investigational agents were tested over a range starting from a high concentration at or near the clinical Cmax and decreasing in half-log increments. If the clinical Cmax for an agent had not been determined, the highest concentration tested was 10 microM.
2.3 Cell Culture. All cells were maintained in an incubator at 37 degrees C and 5% CO2 with 95% humidity. The PDC lines were cultured according to standard operating procedures established by the NCI PDMR. All PDCs were thawed and cultured in Matrigel-coated flasks prepared with a working solution of 1X Ham's F-12 nutrient mix, without supplementation (Invitrogen, cat. 11765054), 100 U/mL penicillin-streptomycin (Invitrogen, cat. 15140122), and 2.5% Matrigel (Corning Inc., cat. 354248) for the first three passages. The 857933-349-R-J2-PDC line was cultured in 6C/Colon 1B media, which includes advanced DMEM/F-12 (Thermo Fisher Scientific, cat. 12634028), 10 mM HEPES (Thermo Fisher Scientific, cat. 15630080), 1X GlutaMAX supplement (Thermo Fisher Scientific, cat. 35050061), 0.1 mg/mL primocin (InvivoGen, cat. ant-pm-2), 10% defined fetal bovine serum, heat inactivated (HyClone Laboratories Inc., cat. SH30070.03HI), 50% L-WRN conditioned media (ATCC, cat. CRL-3276), 1.25 mM N-Acetyl-L-cysteine (Sigma-Aldrich, cat. A9165), 10 mM nicotinamide (Sigma-Aldrich, cat. N0636), 1X B-27 supplement (Thermo Fisher Scientific, cat. 17504044), 1X N-2 supplement (Thermo Fisher Scientific, cat. 17502048), 10 microM Y-27632 dihydrochloride (Tocris Bioscience, cat. 1254), and 50 ng/mL human EGF recombinant protein (Thermo Fisher Scientific, cat. PHG0311). The 485176-168-R4-J1-PDC line was cultured in Panc media, which includes all 6C/Colon 1B media components plus 100 ng/mL human FGF-10 (Thermo Fisher Scientific, cat. 100-26), 500 nM SB-431542 (Selleckchem, cat. S1067), and gastrin (Tocris, cat. 3006).
[…]

What is called IC50 is the concentration needed to halve the response being measured. A word on the viability, T/C: it is the ratio of treated to control.

The structures appear in SMILES notation. Values joined by “and” are separate entries in the source; they are usually repeats but may differ in a detail not shown here. Equal values may be shown once.
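Note: spheroids exposed to compounds for seven days before reading.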
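Throughout, for viability, T/C: percent viability relative to DMSO vehicle control taken as 100%.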

`COc1ccc([C@@H](O)c2cc(-c3ncnc4cc(N5CCOCC5)ccc34)c(F)cc2Cl)nn1` + CN(C)c1ccc(Nc2c3ccc(NC(=O)CCN4CCCC4)cc3nc3cc(NC(=O)CCN4CCCC4)ccc23)cc1: the IC50 was determined as 2850 nM (curve of first compound, second compound 0.0316 µM); 2240 nM (curve of first compound, second compound 0.1 µM); 2360 nM (curve of first compound, second compound 0.316 µM); 2030 nM (curve of first compound, second compound 1 µM); 1800 nM (curve of first compound, second compound 3.16 µM); 876 nM (curve of first compound, second compound 10 µM). The viability, T/C by setting is: (second compound 0.0316 µM, first compound 0.0316 µM) 97.8%; (second compound 0.0316 µM, first compound 0.1 µM) 96.5%; (second compound 0.0316 µM, first compound 0.316 µM) 73.9%; (second compound 0.0316 µM, first compound 1 µM) 76.7%; (second compound 0.0316 µM, first compound 3.16 µM) 42.2%; (second compound 0.0316 µM, first compound 10 µM) 34.5%. For the same compound, the viability, T/C by setting is: (second compound 0.1 µM, first compound 0.0316 µM) 98.8%; (second compound 0.1 µM, first compound 0.1 µM) 86.9%; (second compound 0.1 µM, first compound 0.316 µM) 79.1%; (second compound 0.1 µM, first compound 1 µM) 63.5%; (second compound 0.1 µM, first compound 3.16 µM) 41.5%; (second compound 0.1 µM, first compound 10 µM) 38.5%. In addition, the viability, T/C runs as follows: (second compound 0.316 µM, first compound 0.0316 µM) 90.6%; (second compound 0.316 µM, first compound 0.1 µM) 91.2%; (second compound 0.316 µM, first compound 0.316 µM) 75%; (second compound 0.316 µM, first compound 1 µM) 67.1%; (second compound 0.316 µM, first compound 3.16 µM) 43.4%; (second compound 0.316 µM, first compound 10 µM) 31.8%. Moreover, the viability, T/C was 80.2% (second compound 1 µM, first compound 0.0316 µM); 67.3% (second compound 1 µM, first compound 0.1 µM); 76% (second compound 1 µM, first compound 0.316 µM); 57.2% (second compound 1 µM, first compound 1 µM); 45.2% (second compound 1 µM, first compound 3.16 µM); 34.8% (second compound 1 µM, first compound 10 µM). Besides, the viability, T/C was 69.7% (second compound 3.16 µM, first compound 0.0316 µM); 81.6% (second compound 3.16 µM, first compound 0.1 µM); 65.5% (second compound 3.16 µM, first compound 0.316 µM); 57.9% (second compound 3.16 µM, first compound 1 µM); 43.1% (second compound 3.16 µM, first compound 3.16 µM); 29.9% (second compound 3.16 µM, first compound 10 µM). Besides, the viability, T/C was 92.2% (second compound 10 µM, first compound 0.0316 µM); 81.3% (second compound 10 µM, first compound 0.1 µM); 67.2% (second compound 10 µM, first compound 0.316 µM); 44.6% (second compound 10 µM, first compound 1 µM); 44% (second compound 10 µM, first compound 3.16 µM); 34.9% (second compound 10 µM, first compound 10 µM).
On to `COc1ccc([C@@H](O)c2cc(-c3ncnc4cc(N5CCOCC5)ccc34)c(F)cc2Cl)nn1`, for which the viability, T/C is 82.4% and 103% and 110% (compound 0.0316 µM); 76.2% and 78.4% and 99% (compound 0.1 µM); 81.6% and 86% and 90.4% (compound 0.316 µM); 63.3% and 76.9% and 70.8% (compound 1 µM); 51.5% and 44.1% and 60.7% (compound 3.16 µM); 36.9% and 35.1% and 47.2% (compound 10 µM). The IC50 (curve of compound) was 3150 nM and 2620 nM and 7880 nM.
In the case of `CC(C)(O)C1CCC(Nc2ccc3ncc(-c4cccc(C(F)(F)F)c4)n3n2)CC1` (stereo not drawn), the viability, T/C reads like this: (compound 0.0316 µM) 94.3% and 83.6% and 92%; (compound 0.1 µM) 82.7% and 87.6% and 89.7%; (compound 0.316 µM) 73.7% and 75.8% and 103%; (compound 1 µM) 47.5% and 75.1% and 71%; (compound 3.16 µM) 35% and 31.5% and 45%; (compound 10 µM) 24.6% and 32.1% and 50.8%. Also, for the setting “curve of compound”, the IC50 was 1000 nM and 1950 nM and 2840 nM.
Consider `COc1cc(C2c3cc4c(cc3C(OC3OC5COC(C)OC5C(O)C3O)C3COC(=O)C23)OCO4)cc(OC)c1O` (stereo not drawn), for which the viability, T/C (compound 0.0316 µM) was 102% and 106% and 103%; the viability, T/C (compound 0.1 µM) is 84% and 84.1% and 90.4%; the viability, T/C (compound 0.316 µM) was 72.1% and 81.7% and 80.7%; the viability, T/C (compound 1 µM) was 62.7% and 51.7% and 55.9%; the viability, T/C (compound 3.16 µM) is 40.4% and 40.3% and 45%; the viability, T/C (compound 10 µM) was 38% and 35.9% and 40.2%. Also, where the note is “curve of compound”, the IC50 was 2160 nM and 1550 nM and 2000 nM.
